Source: patent US20260209199A1, “TRISULFIDE COMPOUND” (Kyowa Pharma Chemical Co., Ltd., priority 2022, published 2026)

What was measured:
[1] = disclosed in Patent Literature 2 (WO2022/045052); cited from earlier work
[2] = Octanol/water partition coefficient (log P), HPLC; conditions: octanol/purified water, log10(concentration in octanol layer/concentration in aqueous layer)
Protocol: (§1) Then, 10 mL of octanol was added to each aqueous solution and shaken for 1 minute. 2 mL each was taken from the aqueous layer and the octanol layer, centrifuged, and allowed to stand for 1 hour. 1 mL was precisely measured from the standing solution, 2-propanol was added, and the volume was made up to 10 mL. […] (log P=log10 (concentration in octanol layer/concentration in aqueous layer))

Protocol for physchem: as §1

logP (physchem) | Compound | hydrogen sulfide elimination effect [1] | Partition coefficient (logP) [2]
0.91 | CC(=O)OCC(C)(C)[C@@H](O)C(=O)NCCC(=O)NCCSSSCCNC(=O)CCNC(=O)[C@H](O)C(C)(C)COC(C)=O [Ac-PTN-SSS, acetyl derivative of pantethine trisulfide] |  | 
1.56 | CC1(C)OCC(C)(C)[C@H](C(=O)NCCC(=O)NCCSSSCCNC(=O)CCNC(=O)[C@@H]2OC(C)(C)OCC2(C)C)O1 [Acetonide-PTN-SSS, acetonide derivative of pantethine trisulfide] |  | 
 | CC(C)(CO)[C@@H](O)C(=O)NCCC(=O)NCCSSSCCNC(=O)CCNC(=O)[C@H](O)C(C)(C)CO [PTN-SSS, Pantethine trisulfide] | has a hydrogen sulfide elimination effect | −0.39
